Structures are written as SMILES.

In one test the test system is MCH receptors. As to the kind of experiment: MCH receptor activity class (method not given). The note with it: MCH receptor activity class 1-3 (percent of control at 10^-7 M or IC50).
On to `CN(C)c1cc(N[C@H]2CC[C@@H](NC(=S)Nc3c(F)cc(Br)cc3Br)CC2)nc2ccccc12` [compound 2300, N-(2,4-dibromo-6-fluorophenyl)-N′-(cis-4-{[4-(dimethylamino)quinolin-2-yl]amino}cyclohexyl)thiourea], for which the class was 2 (Class 2: The value of percent of control at 10^−7 M was from 40% to 60% or the value of IC′50 was from 50 nM to 200 nM.). In the case of `Cc1cc(Cl)cc(Cl)c1NC(=S)N[C@H]1CC[C@@H](Nc2cc(N(C)C)c3ccccc3n2)CC1` [compound 2301, N-(2,4-dichloro-6-methylphenyl)-N′-(cis-4-{[4-(dimethylamino)quinolin-2-yl]amino}cyclohexyl)thiourea], the class is listed as 1 (Class 1: The value of percent of control at 10^−7 M was less than 40% or the value of IC50 was less than 50 nM.). Consider `Cc1cccc(NC(=S)N[C@H]2CC[C@@H](Nc3cc(N(C)C)c4ccccc4n3)CC2)c1C` [compound 2299], for which the class is listed as 3 (Class 3 The value of percent of control at 10^−7 M was more than 60% or the value of IC50 was more than 200 nM.).

The test is the same for the next values; noted with them: MCH receptor; class by percent of control at 10^-7 M or IC50.
Turning to `CC(NC(=S)N[C@H]1CC[C@@H](Nc2nc3c(c(N(C)C)n2)CCCC3)CC1)c1ccccc1` (relative stereo) [compound 2024], the class is 3 (Class 3 The value of percent of control at 10^−7 M was more than 60% or the value of IC50 was more than 200 nM.). With `CN(C)c1cc(N[C@H]2CC[C@@H](NC(=O)Cc3cccc4ccccc34)CC2)nc2ccccc12` [compound 89], the class is reported as 3 (Class 3 The value of percent of control at 10^−7 M was more than 60% or the value of IC50 was more than 200 nM.). Regarding `CN(C)c1nc(N[C@H]2CC[C@@H](NC(=S)Nc3cc(F)ccc3Br)CC2)nc2c1CCCC2` [compound 2061], the class is listed as 3 (Class 3 The value of percent of control at 10^−7 M was more than 60% or the value of IC50 was more than 200 nM.). Same read-out and setting: then `CN(C)c1nc(N[C@H]2CC[C@@H](NC(=O)Nc3ccc(C(C)(C)C)cc3)CC2)nc2c1CCCC2` [compound 1918], with 3 (Class 3 The value of percent of control at 10^−7 M was more than 60% or the value of IC50 was more than 200 nM.).

Still in this test, the particulars now being: activity class 1-3: percent of control at 10^-7 M or IC50.
As for `CN(C)c1ccnc(NC2CCC(CNC(=O)OCc3ccccc3)CC2)n1` (stereo not drawn) [compound 1651], the class is given as 3 (Class 3 The value of percent of control at 10^−7 M was more than 60% or the value of IC50 was more than 200 nM.). Consider `COc1ccccc1OC(=O)N[C@H]1CC[C@@H](Nc2nc3c(c(N(C)C)n2)CCCC3)CC1` [compound 1584], for which the class is reported as 3 (Class 3 The value of percent of control at 10^−7 M was more than 60% or the value of IC50 was more than 200 nM.).

The test is the same for the next values; noted with them: class 1-3 by percent of control at 10^-7 M or IC50.
On to `CN(C)c1nc(N[C@H]2CC[C@@H](NC(=O)c3cccc(I)c3)CC2)nc2c1CCCC2` [compound 494], for which the class was 1 (Class 1: The value of percent of control at 10^−7 M was less than 40% or the value of IC50 was less than 50 nM.).

For `COc1ccc(OC)c(CC(=O)NC[C@H]2CC[C@@H](Nc3nc4c(c(N(C)C)n3)CCCC4)CC2)c1` [compound 597], the class is 3 (Class 3 The value of percent of control at 10^−7 M was more than 60% or the value of IC50 was more than 200 nM.).

The same test, now with this note: class by percent of control at 10^-7 M or IC50.
With `CN(C)c1cc(N[C@H]2CC[C@@H](NC(=O)c3ccccc3Oc3ccccc3)CC2)nc2ccccc12` [compound 754, N-(cis-4-{[4-(dimethylamino)quinolin-2-yl]amino}cyclohexyl)-2-phenoxybenzamide], the class is 2 (Class 2: The value of percent of control at 10^−7 M was from 40% to 60% or the value of IC′50 was from 50 nM to 200 nM.). Still for that read-out and setting: as for `CN(C)c1cc(N[C@H]2CC[C@@H](NC(=O)c3cc(Br)c(Br)o3)CC2)nc2ccccc12` [compound 706], the figure is 1 (Class 1: The value of percent of control at 10^−7 M was less than 40% or the value of IC50 was less than 50 nM.). On the same count and under the same terms, then `CN(C)c1ccnc(N[C@H]2CC[C@@H](CNC(=O)c3ccc(F)cc3)CC2)n1` [compound 382], with 3 (Class 3 The value of percent of control at 10^−7 M was more than 60% or the value of IC50 was more than 200 nM.); and `CCOc1ccc(CNC[C@H]2CC[C@@H](Nc3nc4c(c(N(C)C)n3)CCCC4)CC2)c(OCC)c1` [compound 1412], with 1 (Class 1: The value of percent of control at 10^−7 M was less than 40% or the value of IC50 was less than 50 nM.); and `CCCc1ccccc1NC(=O)N[C@H]1CC[C@@H](Nc2cc(N(C)C)c3ccccc3n2)CC1` [compound 2112], with 3 (Class 3 The value of percent of control at 10^−7 M was more than 60% or the value of IC50 was more than 200 nM.).

With `CCOc1cc(OCC)c(OCC)cc1CNC[C@H]1CC[C@@H](Nc2cc(N(C)C)c3ccccc3n2)CC1` [compound 1174], the class is recorded as 2 (Class 2: The value of percent of control at 10^−7 M was from 40% to 60% or the value of IC′50 was from 50 nM to 200 nM.). Consider `CN(C)c1ccnc(N[C@H]2CC[C@@H](NC(=O)c3csc(-c4ccc5c(c4)CCO5)n3)CC2)n1` [compound 359, 2-(2,3-dihydro-1-benzofuran-5-yl)-N-(cis-4-{[4-(dimethylamino)pyrimidin-2-yl]amino}cyclohexyl)-1,3-thiazole-4-carboxamide], for which the class was 1 (Class 1: The value of percent of control at 10^−7 M was less than 40% or the value of IC50 was less than 50 nM.). For `CN(C)c1cc(NC2CCC(NCC3CCCCC3C(O)c3ccccc3)CC2)nc2ccccc12` (stereo not drawn) [compound 1457], the class is recorded as 3 (Class 3 The value of percent of control at 10^−7 M was more than 60% or the value of IC50 was more than 200 nM.). Regarding `Cc1cc(C(=O)NC[C@H]2CC[C@@H](Nc3cc(N(C)C)c4ccccc4n3)CC2)ccc1[N+](=O)[O-]` [compound 803, N-[(cis-4-{[4-(dimethylamino)quinolin-2-yl]amino}cyclohexyl)methyl]-3-methyl-4-nitrobenzamide], the class was 3 (Class 3 The value of percent of control at 10^−7 M was more than 60% or the value of IC50 was more than 200 nM.). Same read-out and setting: as for `CN(C)c1cc(N[C@H]2CC[C@@H](CNCCCCc3ccc([N+](=O)[O-])cc3)CC2)nc2ccccc12` [compound 1480], the figure is 3 (Class 3 The value of percent of control at 10^−7 M was more than 60% or the value of IC50 was more than 200 nM.). For the compound `Cc1ccccc1C(=O)NC[C@H]1CC[C@@H](Nc2nc3c(c(N(C)C)n2)CCCC3)CC1` [compound 658], the class is reported as 3 (Class 3 The value of percent of control at 10^−7 M was more than 60% or the value of IC50 was more than 200 nM.). Still for that read-out and setting: then `Cc1onc(-c2c(F)cccc2Cl)c1C(=O)N[C@H]1CC[C@@H](Nc2nccc(N(C)C)n2)CC1` [compound 318], with 2 (Class 2: The value of percent of control at 10^−7 M was from 40% to 60% or the value of IC′50 was from 50 nM to 200 nM.); and `CCC(Oc1ccccc1)C(=O)NC[C@H]1CC[C@@H](Nc2nccc(N(C)C)n2)CC1` (relative stereo) [compound 393, N-[(cis-4-{[4-(dimethylamino)pyrimidin-2-yl]amino}cyclohexyl)methyl]-2-phenoxybutanamide], with 2 (Class 2: The value of percent of control at 10^−7 M was from 40% to 60% or the value of IC′50 was from 50 nM to 200 nM.).

With `CN(C)c1ccnc(NC2CCC(NC(=O)OCc3ccc([N+](=O)[O-])cc3)CC2)n1` (stereo not drawn) [compound 274], the class was 3 (Class 3 The value of percent of control at 10^−7 M was more than 60% or the value of IC50 was more than 200 nM.).

For the compound `CCCCOC(=O)c1ccc(NC(=O)N[C@H]2CC[C@@H](Nc3nc4c(c(N(C)C)n3)CCCC4)CC2)cc1` [compound 1877], the class was 3 (Class 3 The value of percent of control at 10^−7 M was more than 60% or the value of IC50 was more than 200 nM.). Still for that read-out and setting: then `CN(C)c1cc(N[C@H]2CC[C@@H](CNC(=O)/C=C/c3ccccc3Cl)CC2)nc2ccccc12` [compound 234, (2E)-3-(2-chlorophenyl)-N-[(cis-4-{[4-(dimethylamino)quinolin-2-yl]amino}cyclohexyl)methyl]acrylamide], with 2 (Class 2: The value of percent of control at 10^−7 M was from 40% to 60% or the value of IC′50 was from 50 nM to 200 nM.); and `CN(C)c1ccnc(N[C@H]2CC[C@@H](CNC(=O)c3ccc(Br)cc3)CC2)n1` [compound 367], with 3 (Class 3 The value of percent of control at 10^−7 M was more than 60% or the value of IC50 was more than 200 nM.).

The same test, now with this note: class by percent of control at 10^−7 M or IC50.
Consider `Cc1cc(N(C)C)nc(N[C@H]2CC[C@@H](CNC(=O)c3ccc(C)c(F)c3)CC2)n1` [compound 2755], for which the class is on record as 2 (Class 2: The value of percent of control at 10^−7 M was from 40% to 60% or the value of IC′50 was from 50 nM to 200 nM.). On the same count and under the same terms, then `Cc1cnc(N[C@H]2CC[C@@H](CNC(=O)c3ccc(F)c(F)c3)CC2)nc1N(C)C` [compound 2692, N-[(cis-4-{[4-(dimethylamino)-5-methylpyrimidin-2-yl]amino}cyclohexyl)methyl]-3,4-difluorobenzamide], with 2 (Class 2: The value of percent of control at 10^−7 M was from 40% to 60% or the value of IC′50 was from 50 nM to 200 nM.). Take `COc1cccc(C(=O)N[C@H]2CC[C@@H](Nc3nc(C)c(C)c(N(C)C)n3)CC2)c1` [compound 2824, N-(cis-4-{[4-(dimethylamino)-5,6-dimethylpyrimidin-2-yl]amino}cyclohexyl)-3-methoxybenzamide]: the class is reported as 1 (Class 1: The value of percent of control at 10^−7 M was less than 40% or the value of IC50 was less than 50 nM.). In the case of `Cc1cnc(N[C@H]2CC[C@@H](NC(=O)c3cccnc3Oc3ccccc3Cl)CC2)nc1N(C)C` [compound 2892, 2-(2-chlorophenoxy)-N-(cis-4-{[4-(dimethylamino)-5-methylpyrimidin-2-yl]amino}cyclohexyl)nicotinamide], the class is 1 (Class 1: The value of percent of control at 10^−7 M was less than 40% or the value of IC50 was less than 50 nM.). Same read-out and setting: then `Cc1cnc(N[C@H]2CC[C@@H](NCc3cccc(Cl)c3)CC2)nc1N(C)C` [compound 2998], with 3 (Class 3 The value of percent of control at 10^−7 M was more than 60% or the value of IC50 was more than 200 nM.).

For the origin of these results see patent US20050197350A1, “Novel quinoline, tetrahydroquinazoline, and pyrimidine derivatives and methods of treatment related to the use thereof” (TAISHO PHARMACEUTICAL CO., LTD., priority 2003, published 2005).
